Consider 4 compounds from patent US4698352A, “4-oxo-1,4-dihydronicotinic acid derivatives, salts thereof, and antibacterial agents containing the same” (Toyama Chemical Co., Ltd., priority 1982, dated 1987).

By MIC is commonly meant the least concentration at which growth counts as inhibited.

Values after ≈ are worked out from the molar mass of the structure shown. Where two headings read alike, the source gives them in different places. Bounds are passed on as bounds.

Test in all cases: Antibacterial activity (MIC), agar dilution
Type in all cases: cell-based
A general note: Agar dilution tests growth on a series of plates holding different concentrations.

One test deals with Kl. pneumoniae Y-50. As to conditions: Klebsiella pneumoniae, Y50, 20 h, 10^6 cells per ml, 37° C., read-out: MIC. The text has this: (§1) The amount of bacteria inoculated was 10^4 cells per plate (10^6 cells per ml).
The test system of the next test is Pro. morganii T-216. As to conditions: Morganella morganii, 37° C.
Excerpt: as §1

Another test deals with Aci. antitratus A-6. As to conditions: 20 h, Aci. antitratus A-6; 10^6 cells per ml; 37° C., 20 hours; read-out: MIC.
Excerpt: as §1

Another test concerns St. aureus FDA209P. As to conditions: Staphylococcus aureus, FDA209P, 20 h, St. aureus FDA209P; 10^6 cells per ml; 37° C., 20 hours; read-out: MIC.
Excerpt: as §1

Another test deals with Ps. aeruginosa S-68. As to conditions: Pseudomonas aeruginosa.
Excerpt: as §1

The test system of another test is Ps. aeruginosa IFO3445. The conditions noted are these: Pseudomonas aeruginosa.
Excerpt: as §1

In the next test the test system is Pro. mirabilis T-111. As to conditions: Proteus mirabilis, 37° C.
Excerpt: as §1

A further test concerns Pro. vulgaris GN3027. As to conditions: Proteus vulgaris, GN3027, 20 h.
Excerpt: as §1

The subject of a further test is Kl. pneumoniae Y-41. The conditions noted are these: Klebsiella pneumoniae, Y41, 10^6 cells per ml, 37° C., 20 hours, read-out: MIC.
Excerpt: as §1

A further test concerns Ent. cloacae IID977. As to conditions: Enterobacter cloacae, IID977, 20 h, Ent. cloacae IID977; 10^6 cells per ml; 37° C., 20 hours; read-out: MIC.
Excerpt: as §1

The next test concerns E. coli NIHJ JC-2. As to conditions: Escherichia coli, NIHJJC2, 20 h.
Excerpt: as §1

The next test has as its system E. coli TK-111. The conditions noted are these: Escherichia coli, TK111, 20 h, E. coli TK-111; 10^6 cells per ml; 37° C., 20 hours; read-out: MIC.
Excerpt: as §1

The test system of another test is Ps. aeruginosa GN918**. The conditions noted are these: Pseudomonas aeruginosa, Ps. aeruginosa GN918, cephalospolinase-producing, 10^6 cells per ml.
Excerpt: as §1
(§2) ** Cephalospolinase-producing bacteria

The subject of the next test is Pro. vulgaris GN76**. The conditions noted are these: Proteus vulgaris, 20 h; Pro. vulgaris GN76, cephalospolinase-producing; 10^6 cells per ml; read-out: MIC.
Excerpt: as §1, §2

The test system of a further test is E. coli GN5482**. As to conditions: Escherichia coli, 20 h; E. coli GN5482, cephalospolinase-producing; 10^6 cells per ml; read-out: MIC.
Excerpt: as §1, §2

The next test relates to E. coli TK-3*. The conditions noted are these: Escherichia coli, 20 h, E. coli TK-3, penicillinase-producing; 10^6 cells per ml; read-out: MIC.
Excerpt: as §1
(§3) * Penicillinase-producing bacteria

The subject of a further test is Ps. aeruginosa GN3379*. The conditions noted are these: Pseudomonas aeruginosa, 20 h; Ps. aeruginosa GN3379, penicillinase-producing; 10^6 cells per ml; read-out: MIC.
Excerpt: as §1, §3

Another test has as its system St. aureus F-137*. As to conditions: Staphylococcus aureus, 20 h, St. aureus F-137, penicillinase-producing; 10^6 cells per ml; read-out: MIC.
Excerpt: as §1, §3

The next test relates to Kl. pneumoniae Y-4*. The conditions noted are these: Klebsiella pneumoniae, 20 h, Kl. pneumoniae Y-4, penicillinase-producing; 10^6 cells per ml; read-out: MIC.
Excerpt: as §1, §3

Setting [1] is: T216, 10^6 cells per ml, 20 hours, read-out: MIC.
[2] abbreviates: T111, 10^6 cells per ml, 20 hours, read-out: MIC.
The mark [3] stands for this setting: Pro. vulgaris GN3027, 10^6 cells per ml, 37° C., 20 hours, read-out: MIC.
Where [4] appears, read: E. coli NIHJ JC-2, 10^6 cells per ml, 37° C., 20 hours, read-out: MIC.
Setting [5] is: S68, Ps. aeruginosa S-68, 10^6 cells per ml, 37° C., 20 hours, read-out: MIC.
Setting [6] is: Ps. aeruginosa IFO3445, 10^6 cells per ml, 37° C., 20 hours, read-out: MIC.

Turning to `CC(=O)Oc1ccc(-n2cc(C(=O)O)c(=O)cc2-c2ccc(-c3cccs3)cc2)cc1`, the MIC in the test on Kl. pneumoniae Y-50 was 0.39 µg/mL (≈ 0.904 µM); in the test on Pro. morganii T-216 (setting [1]), 0.39 µg/mL (≈ 0.904 µM); with Aci. antitratus A-6 it was at most 0.05 µg/mL; in the test on St. aureus FDA209P, at most 0.05 µg/mL; with Ps. aeruginosa S-68 (S68, 20 h), 1.56 µg/mL (≈ 3.62 µM); against Ps. aeruginosa IFO3445 (IFO3445, 20 h) it was 1.56 µg/mL (≈ 3.62 µM). Also, the MIC in the test with Pro. mirabilis T-111 (setting [2]) is 0.39 µg/mL (≈ 0.904 µM); in the test on Pro. vulgaris GN3027 (setting [3]), at most 0.05 µg/mL; with Kl. pneumoniae Y-41 it was 0.78 µg/mL (≈ 1.81 µM); with Ent. cloacae IID977, 0.39 µg/mL (≈ 0.904 µM); in the test on E. coli NIHJ JC-2 (setting [4]), 0.2 µg/mL (≈ 0.464 µM); with E. coli TK-111, at most 0.05 µg/mL. The MIC in the test with Ps. aeruginosa GN918** (GN918, 20 h) was 1.56 µg/mL (≈ 3.62 µM); in the test on Pro. vulgaris GN76**, 0.39 µg/mL (≈ 0.904 µM); in the test with E. coli GN5482** it was at most 0.05 µg/mL; in the test with E. coli TK-3*, 0.39 µg/mL (≈ 0.904 µM); in the test with Ps. aeruginosa GN3379*, 3.13 µg/mL (≈ 7.25 µM); with St. aureus F-137*, at most 0.05 µg/mL. Besides, the MIC in the test on Kl. pneumoniae Y-4* worked out at 1.56 µg/mL (≈ 3.62 µM).
For the compound `CN1CCc2cc(-c3cc(=O)c(C(=O)O)cn3-c3ccc(O)cc3)ccc21`, the MIC in the test on Kl. pneumoniae Y-50 is 0.39 µg/mL (≈ 1.08 µM); in the test on Pro. morganii T-216 (setting [1]), 0.78 µg/mL (≈ 2.15 µM); with Aci. antitratus A-6 it was 0.39 µg/mL (≈ 1.08 µM); in the test on St. aureus FDA209P it was 0.2 µg/mL (≈ 0.552 µM); in the test on Ps. aeruginosa S-68 (setting [5]), 6.25 µg/mL (≈ 17.2 µM); in the test with Ps. aeruginosa IFO3445 (setting [6]), 12.5 µg/mL (≈ 34.5 µM). The MIC in the test on Pro. mirabilis T-111 (setting [2]) is 3.13 µg/mL (≈ 8.64 µM); in the test on Pro. vulgaris GN3027 (setting [3]) it was 0.2 µg/mL (≈ 0.552 µM); in the test on Kl. pneumoniae Y-41 it was 1.56 µg/mL (≈ 4.3 µM); in the test with Ent. cloacae IID977, 0.78 µg/mL (≈ 2.15 µM); in the test with E. coli NIHJ JC-2 (setting [4]), 0.2 µg/mL (≈ 0.552 µM); in the test on E. coli TK-111, at most 0.05 µg/mL. The minimum inhibitory concentration (MIC) is 1.56 µg/mL (≈ 4.3 µM) against Ps. aeruginosa GN918** (GN918, 20 h); 0.39 µg/mL (≈ 1.08 µM) in the test on Pro. vulgaris GN76**; at most 0.05 µg/mL in the test on E. coli GN5482**; 0.39 µg/mL (≈ 1.08 µM) in the test with E. coli TK-3*; 6.25 µg/mL (≈ 17.2 µM) in the test with Ps. aeruginosa GN3379*; 0.1 µg/mL (≈ 0.276 µM) in the test on St. aureus F-137*. Besides, in the test on Kl. pneumoniae Y-4*, the MIC came out at 1.56 µg/mL (≈ 4.3 µM).
Regarding `Cn1ccc2cc(-c3cc(=O)c(C(=O)O)cn3-c3ccc(O)cc3)ccc21`, the MIC is 0.2 µg/mL (≈ 0.555 µM) in the test on Kl. pneumoniae Y-50; 0.39 µg/mL (≈ 1.08 µM) with Pro. morganii T-216 (setting [1]); 0.1 µg/mL (≈ 0.277 µM) with Aci. antitratus A-6; at most 0.05 µg/mL in the test with St. aureus FDA209P; 3.13 µg/mL (≈ 8.69 µM) with Ps. aeruginosa S-68 (setting [5]); 3.13 µg/mL (≈ 8.69 µM) with Ps. aeruginosa IFO3445 (setting [6]). In addition, the MIC with Pro. mirabilis T-111 (setting [2]) was 0.78 µg/mL (≈ 2.16 µM); with Pro. vulgaris GN3027 (setting [3]) it was 0.1 µg/mL (≈ 0.277 µM); in the test on Kl. pneumoniae Y-41, 0.78 µg/mL (≈ 2.16 µM); with Ent. cloacae IID977, 0.39 µg/mL (≈ 1.08 µM); in the test on E. coli NIHJ JC-2 (setting [4]) it was 0.1 µg/mL (≈ 0.277 µM); in the test on E. coli TK-111, at most 0.05 µg/mL. Besides, the MIC is 0.78 µg/mL (≈ 2.16 µM) in the test with Ps. aeruginosa GN918** (20 h, read-out: MIC); 0.39 µg/mL (≈ 1.08 µM) in the test with Pro. vulgaris GN76**; at most 0.05 µg/mL with E. coli GN5482**; 0.39 µg/mL (≈ 1.08 µM) with E. coli TK-3*; 3.13 µg/mL (≈ 8.69 µM) in the test on Ps. aeruginosa GN3379*; at most 0.05 µg/mL in the test on St. aureus F-137*. Moreover, the MIC in the test on Kl. pneumoniae Y-4* turned out to be 0.78 µg/mL (≈ 2.16 µM).
Take `O=C(O)c1cn(-c2ccc(O)cc2F)c(-c2ccc(N3CCOCC3)cc2)cc1=O`: the MIC in the test on Kl. pneumoniae Y-50 was 1.56 µg/mL (≈ 3.8 µM); in the test with Pro. morganii T-216 (T216, 20 h, 10^6 cells per ml), 12.5 µg/mL (≈ 30.5 µM); in the test with Aci. antitratus A-6 it was 6.25 µg/mL (≈ 15.2 µM); with St. aureus FDA209P it was 0.78 µg/mL (≈ 1.9 µM); in the test on Ps. aeruginosa S-68 (setting [5]), 25 µg/mL (≈ 60.9 µM); in the test with Ps. aeruginosa IFO3445 (setting [6]), 100 µg/mL (≈ 244 µM). The MIC turned out to be 12.5 µg/mL (≈ 30.5 µM) against Pro. mirabilis T-111 (T111, 20 h, 10^6 cells per ml); 1.56 µg/mL (≈ 3.8 µM) with Pro. vulgaris GN3027; 12.5 µg/mL (≈ 30.5 µM) in the test with Kl. pneumoniae Y-41; 6.25 µg/mL (≈ 15.2 µM) with Ent. cloacae IID977; 1.56 µg/mL (≈ 3.8 µM) with E. coli NIHJ JC-2; 0.39 µg/mL (≈ 0.95 µM) with E. coli TK-111. Besides, the MIC against Ps. aeruginosa GN918** (GN918, 20 h) was found to be 12.5 µg/mL (≈ 30.5 µM); in the test with Pro. vulgaris GN76**, 6.25 µg/mL (≈ 15.2 µM); with E. coli GN5482**, 0.39 µg/mL (≈ 0.95 µM); in the test on E. coli TK-3*, 3.13 µg/mL (≈ 7.63 µM); with Ps. aeruginosa GN3379*, 50 µg/mL (≈ 122 µM); with St. aureus F-137*, 0.78 µg/mL (≈ 1.9 µM). For the same compound, in the test on Kl. pneumoniae Y-4*, the minimal inhibitory concentration (MIC) amounted to 25 µg/mL (≈ 60.9 µM).
